Where “and” joins values, the source holds several entries; their conditions need not be identical. Equal entries are not always repeated.
Columns and labels:
[1] = Oral pharmacokinetics of Compound 1 and HCl salt in suspension in male dogs at 200 mg/kg
[2] = Stability of 6 mg/mL aqueous methylcellulose-polysorbate 80 suspension (HPLC, XRPD, NMR); format: physicochemical; conditions: 0.5% methylcellulose/0.5% polysorbate 80; HCl salt quickly converted to Compound 1 at T(0)
Method: Methylcellulose (0.5 g) was combined with 99.0 g of purified water in a beaker and stirred in a 60-70° C. water bath for 30′-1 hr. The solution was stirred in a 0° C. ice/water bath for another 30′ or until clear. Polysorbate 80 (0.5 g) was added and stirring at room temperature followed for 30′-1 hr or until a clear solution was obtained.
The desired amount of 0.5% methylcellulose and 0.5% polysorbate 80 stock solution for making a 6 mg/mL based on free base (6.48 mg/mL based on HCl salt) was transferred into the vial and sonicated for 20 minutes with alternate stirring for 1-2 minutes. The solution was homogenized for approximately 1-2 minutes.
As with 0.5% methylcellulose formulation prepared previously, the HCl salt was quickly converted to Compound 1 in Form I at T(0) resulting in a crystalline free form suspension as shown by XRPD (FIG. 10) and confirmed by ^1H NMR analysis (FIGS. 11-13). Additionally, the solid form in suspension at T(0) was recovered an subjected to HPLC analysis: […]

[3] = Single oral pharmacokinetics of the HCl salt in suspension in fed and fasted male rats; format: in vivo, male Sprague Dawley rats; conditions: 30 mg/kg; for AUC0-INF: HCl salt suspension; for Clast / F / Tmax / t1/2 / tlast: HCl salt
Method: (§1) Non-validated research grade assays were used for these analyses. All pharmacokinetic studies were conducted using fed animals unless otherwise specified.
The tmax following oral administration of the HCl salt was 3.7 hours under fed and 3.3 hours under fasted conditions, which was similar to the tmax of 3.0 to 4.7 hours following oral administration of Compound 1 under fed conditions.

Solubility (statement) = format: physicochemical; conditions: water
[4] = Single oral pharmacokinetics of the HCl salt in suspension in male dogs; format: in vivo, male beagle dogs; conditions: for AUC0-INF / Cmax: mean (SD)
Method: as §1
At nominal dose levels of 5 to 200 mg/kg in 0.5% polysorbate 80/0.5% methylcellulose/water, exposure was high and relatively dose proportional to 200 mg/kg (Table 5). […] Bioavailability ranged from 24% to 49% at all dose levels studied and in both suspension formulations.

[5] = 0.5% polysorbate 80/0.5% MC/Water, 5 mg/kg
[6] = 0.5% polysorbate 80/0.5% MC/Water, 25 mg/kg
[7] = 0.5% polysorbate 80/0.5% MC/Water, 50 mg/kg
[8] = 0.5% polysorbate 80/0.5% MC/Water, 100 mg/kg
[9] = 0.5% polysorbate 80/0.5% MC/Water, 200 mg/kg

`Cc1ccc(NC(=O)C2(c3ccc4c(c3)OC(F)(F)O4)CC2)nc1-c1cccc(C(=O)O)c1.Cl` [HCl salt, 3-(6-(1-(2,2-difluorobenzo[d][1,3]dioxol-5-yl)cyclopropanecarboxamido)-3-methylpyridin-2-yl)benzoic acid.HCl] showed a Clast ([1]; HCl salt) of 128 ng/mL, an F ([1]; HCl salt) of 53% and a Tmax ([1]; HCl salt) of 2.5 h. The t1/2 ([1]; HCl salt) was 5.5 h, the tlast ([1]; HCl salt) was 48 h and the AUC0-INF ([1]; HCl salt suspension) was 755 µg·h/mL. The “physical stability of suspension” value [2] was “not physically stable”, the AUC0-INF ([3]; Fasted) was 383 µg·h/mL and the AUC0-INF ([3]; Fed) was 340 µg·h/mL. For the same compound, the Clast ([3]; Fasted) was 60 ng/mL, the F ([3]; Fasted) was over 100% and the Tmax ([3]; Fasted) was 3.3 h and 3.33 h. For the same compound, the t1/2 ([3]; Fasted) was 5.36 h, the tlast ([3]; Fasted) was 48 h and the Clast ([3]; Fed) was 240 ng/mL. The F ([3]; Fed) was over 100%, the Tmax ([3]; Fed) was 3.7 h and 3.67 h and the t1/2 ([3]; Fed) was 6.07 h. For the same compound, the tlast ([3]; Fed) was 48 h, the solubility in water (Solubility (statement)) was “sparingly soluble” and the F ([4]; 0.5% MC/Water, 1 mg/kg) was 35%. For the same compound, the T1/2 ([4]; 0.5% MC/Water, 1 mg/kg) was 6.0 h, the Tmax ([4]; 0.5% MC/Water, 1 mg/kg) was 0.83 h and the AUC0-INF ([4]; 0.5% MC/Water, 1 mg/kg) was 2.2 (0.5) hr · μg/mL. For the same compound, the Cmax ([4]; 0.5% MC/Water, 1 mg/kg) was 0.37 (0.2) μg/mL, the F ([4]; 0.5% MC/Water, 3 mg/kg) was 49% and the T1/2 ([4]; 0.5% MC/Water, 3 mg/kg) was 5.3 h. For the same compound, the Tmax ([4]; 0.5% MC/Water, 3 mg/kg) was 1.7 h, the AUC0-INF ([4]; 0.5% MC/Water, 3 mg/kg) was 9.3 (4.8) hr · μg/mL and the Cmax ([4]; 0.5% MC/Water, 3 mg/kg) was 1.1 (0.5) μg/mL. For the same compound, the F ([4]; 0.5% MC/Water, 10 mg/kg) was 40%, the T1/2 ([4]; 0.5% MC/Water, 10 mg/kg) was 8.8 h and the Tmax ([4]; 0.5% MC/Water, 10 mg/kg) was 1.0 h. For the same compound, the AUC0-INF ([4]; 0.5% MC/Water, 10 mg/kg) was 28.4 (12.8) hr · μg/mL, the Cmax ([4]; 0.5% MC/Water, 10 mg/kg) was 8.9 (7.2) μg/mL and the F [4, 5] was 24%. The T1/2 [4, 5] was 7.0 h, the Tmax [4, 5] was 1.0 h and the AUC0-INF [4, 5] was 11.0 (3.6) hr · μg/mL. For the same compound, the Cmax [4, 5] was 3.0 (0.5) μg/mL, the F [4, 6] was 41% and the T1/2 [4, 6] was 5.9 h. For the same compound, the Tmax [4, 6] was 2.0 h, the AUC0-INF [4, 6] was 56.8 (22.1) hr · μg/mL and the Cmax [4, 6] was 18.0 (3.7) μg/mL. For the same compound, the F [4, 7] was 27%, the T1/2 [4, 7] was 4.9 h and the Tmax [4, 7] was 1.7 h. For the same compound, the AUC0-INF [4, 7] was 63.4 (22.9) hr · μg/mL, the Cmax [4, 7] was 21.0 (7.1) μg/mL and the F [4, 8] was 46%. For the same compound, the T1/2 [4, 8] was 5.4 h, the Tmax [4, 8] was 1.7 h and the AUC0-INF [4, 8] was 268 (123) hr · μg/mL. The Cmax [4, 8] was 54.4 (6.8) μg/mL, the F [4, 9] was 30% and the T1/2 [4, 9] was 5.9 h. The Tmax [4, 9] was 2.3 h, the AUC0-INF [4, 9] was 523 (46.8) hr · μg/mL and the Cmax [4, 9] was 101 (30.2) μg/mL.

From US20090176839A1, “FORMULATIONS OF 3-(6-(1-(2,2-DIFLUOROBENZO[D][1,3]DIOXOL-5-YL) CYCLOPROPANECARBOXAMIDO)-3-METHYLPYRIDIN-2-YL)BENZOIC ACID” (priority 2007, published 2009)
